Laboratory results reported in patent US11292759B2, “Hydroxycitric acid metal heterocyclic compounds with covalent characteristics” (GLYKON TECHNOLOGIES GROUP, LLC, priority 2018, dated 2022).
One block for each molecule: values may come before it.

Legend:
[1] = system: osteoporosis and calcification; test: Example 13: comparison of bimetal regimes in two subjects; type: in vivo, human; set-up: key to Treatment performance: ++: very good performance; +−: good but slight complaint
Experimental: Subject I: a person, 40 kg (cited in Example 11, above)
Subject II: a person; 72 kg
Treatment: A. Mixture 25% KCa HCA+75% KMg HCA bimetals (100-200 mg)
Treatment B: Only KMg HCA but not KCa HCA was used.

[2] = system: Osteoporosis; test: Example 14: comparison of KCaHCA and/or KMgHCA compositions in one subject; type: in vivo, human; conditions: 200 mg doses, after switch from experiment 1 regimen
Experimental: • Subject: (cited as Example 12, above) • • Problem: Osteoporosis • Treatment: Materials were consumed 3 times a day after meals. • Experiment 1. Blending 150 mg KMgHCA.8H2O+50 mg KCaHCA.3H2O • A 200 mg mixture of KCaHCA (25%) and KMgHCA (75%) prepared according to the subject methods was used. The actual percentage of calcium was (40/338)×25%=2.96%. Since KCaHCA.3H2O was used the percentage of magnesium in the composition was (24/412)×75%=4.37%. Since KMgHCA.8H2O was used, the ratio Ca:Mg=0.15:0.36 in mmol. • Experiment 2. 200 mg KMgHCA.8H2O • Experiment 3.

[3] = cited from earlier work
[4] = system: de novo lipogenesis (DNL); test: De novo lipogenesis in rats (literature); type: in vivo; conditions: for a 70 kg human being
Text: Dosages of various HCA compositions found to be effective are quite large, indeed beyond the normal range for pharmaceutical products, with efficacy that is highly variable. […] A later study found a significant, yet limited effect after 7 days of a diet designed specifically to induce de novo lipogenesis in humans. (Physiol Behav. 2006 Jul. 30; 88(4-5): 371-81). See also, Nutr Metab (Lond). 2005 Sep. 13; 2:23.

[5] = system: de novo lipogenesis (DNL); conditions: obese subjects, 6 g HCA/day for 5 days; cited from earlier work
[6] = target: T1, ATP citrate lyase (EC 4.1.3.8) (Homo sapiens, UniProt P53396); conditions: cited from earlier work
T1 sequence (P53396 1-1101): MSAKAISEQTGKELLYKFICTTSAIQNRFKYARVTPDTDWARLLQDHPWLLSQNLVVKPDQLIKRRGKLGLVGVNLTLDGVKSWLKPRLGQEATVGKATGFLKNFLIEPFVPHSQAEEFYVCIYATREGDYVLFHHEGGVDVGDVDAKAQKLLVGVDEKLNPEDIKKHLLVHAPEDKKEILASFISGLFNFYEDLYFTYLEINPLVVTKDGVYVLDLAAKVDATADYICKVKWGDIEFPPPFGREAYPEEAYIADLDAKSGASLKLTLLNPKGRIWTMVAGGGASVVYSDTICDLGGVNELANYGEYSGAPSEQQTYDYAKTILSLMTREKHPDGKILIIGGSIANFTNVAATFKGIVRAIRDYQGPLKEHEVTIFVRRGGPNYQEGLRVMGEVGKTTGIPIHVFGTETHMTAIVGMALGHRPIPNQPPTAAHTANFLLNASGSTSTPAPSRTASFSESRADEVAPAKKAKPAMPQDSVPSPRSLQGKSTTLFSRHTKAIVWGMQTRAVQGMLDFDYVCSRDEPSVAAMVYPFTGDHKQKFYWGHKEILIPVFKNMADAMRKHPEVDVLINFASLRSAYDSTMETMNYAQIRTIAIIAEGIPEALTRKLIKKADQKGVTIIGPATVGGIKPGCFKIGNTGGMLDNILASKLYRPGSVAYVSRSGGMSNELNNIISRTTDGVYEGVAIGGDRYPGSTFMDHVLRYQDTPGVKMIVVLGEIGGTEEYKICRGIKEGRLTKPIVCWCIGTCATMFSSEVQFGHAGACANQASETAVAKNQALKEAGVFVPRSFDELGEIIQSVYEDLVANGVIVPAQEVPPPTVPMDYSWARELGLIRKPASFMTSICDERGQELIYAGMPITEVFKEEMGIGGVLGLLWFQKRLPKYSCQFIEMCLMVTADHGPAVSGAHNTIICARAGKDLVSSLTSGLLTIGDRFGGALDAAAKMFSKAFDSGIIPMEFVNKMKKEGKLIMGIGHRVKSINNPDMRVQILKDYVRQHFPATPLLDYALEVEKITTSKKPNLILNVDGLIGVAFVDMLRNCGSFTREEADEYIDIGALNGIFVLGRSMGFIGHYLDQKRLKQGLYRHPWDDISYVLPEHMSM

[7] = Conductivity of solutions (HACH Conductivity/TDS meter); type: physicochemical; conditions: Concentration 0.3 mmol/l in demineralized water, no additive
Text: The structure of the subject compounds (e.g., as described herein) can be deduced using a conductance meter to observe the extent of dissociate of the first and/or second metals from the compounds. In an experiment described below equimolar samples and comparative electrolyte conductance to K-acetate solution as a standard, data may be obtained which is characteristic of electrolyte binary conductants. […] The KMgHCA solution in water may have a pH 8-10 depending on the concentration. Under this condition, the heterocyclic anion formed will tend toward a stable form rather than an ionizable one.
Several experiments investigating the electrical conductivities of solutions of KMgHCA, KZnHCA and KMnHCA are performed. The equipment used is HACH Conductivity/TDS meter, P/N=4460-00.
Materials: KMgHCA.4H2O, KZnHCA.2H2O, KMnHCA.2H2O are prepared using methods described herein. KC2H3O2 and […] was obtained from Merck. H2O used was demineralized water.
General procedure: All the HCA compounds and Acetate were weighed and placed in a volumetric flask and dissolved with demineralized water to one liter solution and then they were tested the conductivity (EC).

SMILES: O=C([O-])CC(O)(C(=O)[O-])C(O)C(=O)[O-].[K+].[Mg+2] (stereo not drawn) [KMgHCA]
Treatment performance ([1]; Patient II (72 kg)): +− | reduction of symptoms ([1]; Subject II): partial reduction of symptoms | patient's condition observed during treatment [2]: slight difficult to walk

SMILES: O=C(O)CO [glycolic acid]
pKa [3]: approx. 3.83

SMILES: O=C(O)CC(O)(C(=O)O)C(O)C(=O)O (stereo not drawn) [HCA, Hydroxycitric acid]
effective dose extrapolated from rats [4]: approximately 4.5 g/day | inhibition of DNL / promotion of fatty acid oxidation [5]: failed to inhibit DNL or to promote fatty acid oxidation

SMILES: O=C(O)CC(O)(C(=O)O)C(O)C(=O)O (single isomer, unassigned; (-)) [(−)-HCA, (−)-hydroxycitric acid]
inhibition of ATP citrate lyase [6]: potent inhibitor

E. C (μS/cm) [7]: 32.3 μS/cm
SMILES: CC(=O)[O-].CC(=O)[O-].O.O.O.O.[Mg+2] [Mg(CH3COO)2•4H2O]

E. C (μS/cm) [7]: 56.06 μS/cm
SMILES: CC(=O)[O-].[K+] [KC2H3O2, K-acetate]
